Measurements published in article PMC6484129, “Structure–function analyses reveal that a glucuronoyl esterase from Teredinibacter turnerae interacts with carbohydrates and aromatic compounds” (The Journal of Biological Chemistry, 2019).
Where two headings read alike, the source gives them in different places. One block for each molecule: values may come before it.

What was measured:
Test in all cases: inhibition of BnzGlcA hydrolysis, coupled K-URONIC assay
Format in all cases: biochemical
TtCE15A [1] = target: T1, TtCE15A (Teredinibacter turnerae, UniProt C5BN23, F174D)
T1 construct: gene TERTU_0517
T1 sequence (C5BN23 entry or part of it F174D): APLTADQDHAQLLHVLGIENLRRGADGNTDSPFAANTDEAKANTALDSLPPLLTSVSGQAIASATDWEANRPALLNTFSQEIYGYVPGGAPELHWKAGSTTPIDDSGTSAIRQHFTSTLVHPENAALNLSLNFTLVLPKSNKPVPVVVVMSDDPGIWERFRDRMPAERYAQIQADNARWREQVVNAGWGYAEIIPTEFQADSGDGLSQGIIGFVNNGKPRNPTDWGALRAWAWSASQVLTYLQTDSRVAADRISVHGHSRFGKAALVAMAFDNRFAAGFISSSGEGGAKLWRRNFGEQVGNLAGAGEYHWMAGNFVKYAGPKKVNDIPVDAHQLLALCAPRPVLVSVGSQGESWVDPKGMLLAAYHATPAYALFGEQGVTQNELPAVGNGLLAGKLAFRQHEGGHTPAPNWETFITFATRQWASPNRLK
Description: (§1) inhibition of BnzGlcA hydrolysis, coupled K-URONIC assay on TtCE15A

TtCE15A [2] = target: T2, TtCE15A (Teredinibacter turnerae, UniProt C5BN23)
T2 construct: gene TERTU_0517
T2 sequence (C5BN23 entry or part of it): as the sequence (C5BN23 entry or part of it F174D) above, with D152F counted along it
Description: as §1

TtCE15A [3] = target: T3, TtCE15A (Teredinibacter turnerae, UniProt C5BN23, F174A)
T3 construct: gene TERTU_0517
T3 sequence (C5BN23 entry or part of it F174A): as the sequence (C5BN23 entry or part of it F174D) above, with D152A counted along it
Description: as §1

IC50 (TtCE15A [1]; read-out: FA): 400 ± 40 µM | IC50 (TtCE15A [2]; read-out: FA): 550 ± 45 µM | IC50 (TtCE15A [3]; read-out: FA): 84 ± 5 µM
Compound: COc1cc(/C=C/C(=O)O)ccc1O [FA, ferulic acid]

IC50 (TtCE15A [1]; read-out: SA): 770 ± 64 µM | IC50 (TtCE15A [2]; read-out: SA): 560 ± 30 µM | IC50 (TtCE15A [3]; read-out: SA): 190 ± 22 µM
Compound: COc1cc(/C=C/C(=O)O)cc(OC)c1O [SA, sinapic acid]

IC50 (TtCE15A [2]; 0.4 mM BnzGlcA, pH 7.5, <10% DMSO, read-out: XUXXR): 5510 ± 280 µM
Compound: CO[C@@H]1C(C(=O)O)O[C@H](O[C@H]2[C@H](O[C@@H]3CO[C@@H](O[C@H](CO)[C@H](O)[C@@H](O)CO)[C@H](O)[C@H]3O)OC[C@@H](O[C@@H]3OC[C@@H](O)[C@H](O)[C@H]3O)[C@@H]2O)[C@H](O)[C@H]1O (stereo partly drawn) [XUXXR, 2^3-(4-O-methyl-D-glucuronyl)-α-D-xylotetraitol]

IC50 (TtCE15A [2]; read-out: pCoA): 830 ± 40 µM | IC50 (TtCE15A [3]; read-out: pCoA): 4840 ± 470 µM
Compound: O=C(O)/C=C/c1ccc(O)cc1 [pCoA, p-coumaric acid]
